Results reported in patent publication US8293979B2, “Weed controller metabolism proteins, genes, thereof and use of the same” (Sumitomo Chemical Company, Limited, priority 2001, dated 2012).

Assays:
[1] = tested on: present invention protein (A1); test: Metabolism of compounds by the present invention protein (A1), reaction solution, HPLC; assay type: in vitro ADME, Streptomyces phaeochromogenes IFO12898; details: 12.5 ppm of compound, components A, B, C, 20 μl supernatant fraction of Example 4(2), 30° C. for 10 minutes
Experimental: There was prepared 100 μl of a reaction solution of 50 mM potassium phosphate buffer (pH7.0) containing 5 ppm of compound (XII), 3 mM of […] (hereinafter, referred to as “component A”) (Oriental Yeast Company), 1 mg/ml of a ferredoxin derived from spinach (hereinafter referred to as “component B”) (Sigma Company), 0.15 U/ml of ferredoxin reductase (hereinafter, referred to as “component C”) (Sigma Company) and 20 μl of the supernatant fraction recovered in Example 4(2). The reaction solution was maintained at 30° C. for 10 minutes. Further, there was prepared and maintained similarly 100 μl of a reaction solution of a 50 mM potassium phosphate buffer (pH 7.0) having no addition of at least one component utilized in the composition of the above reaction solution, selected from component A, component B, component C and the supernatant fraction prepared in Example 4(2). Ten microliters (10 μl) of 2N HCl and 500 μl of ethyl acetate were added and mixed into each of the reaction solutions after the maintenance. The resulting reaction solutions were centrifuged at 8,000×g to recover 490 μl of the ethyl acetate layer. After drying the ethyl acetate layers under reduced pressure, the residue was dissolved in 100 μl of 50 mM of potassium phosphate buffer (pH7.0). Forty microliters (40 μl) of the fraction solutions (hereinafter, the fraction solution derived from the reaction solution containing component A, component B, component C and 20 μl of supernatant fraction recovered in Example 4(2) is referred to as “(XII) metabolism solution (A1);” further, the fraction solution derived from the reaction solution containing no component A, no component B, no component C and no supernatant fraction recovered in Example 4(2) is referred to as “(XII) control solution (A1)”) were analyzed on a HPLC. Compared to the concentration of compound (XII) detected from (XII) control solution (A1), the concentration of compound (XII) detected from (XII) metabolism solution (A1) was lower. Further a peak, which was not detected from the (XII) control solution (A1), was detected from the (XII) metabolism solution (A1). Mass spectrometry was conducted for the compound contained in such a peak. The mass of the compound contained in such a peak was 14 smaller than the mass of compound (XII).
Other than utilizing 5 ppm of compound (XIII) instead of 5 ppm of compound (XII), reaction solutions were prepared and maintained similarly to the method described in Example 41(2). […] Compared to the concentration of compound (XIII) detected from (XIII) control solution (A1), the concentration of compound (XIII) detected from (XIII) metabolism solution (A1) was lower. Further a peak, which was not detected from the (XIII) control solution (A1), was detected from the (XIII) metabolism solution (A1). […]

[2] = tested on: present invention protein (A11); test: Metabolism of compounds by the present invention protein (A11), reaction solution, HPLC; assay type: in vitro ADME, Streptomyces nogalator IFO13445; details: 12.5 ppm of compound, components A, B, C, 20 μl supernatant fraction of Example 32(2), 30° C. for 10 minutes
Experimental: There was prepared 100 μl of a reaction solution of 50 mM potassium phosphate buffer (pH7.0) containing 5 ppm of compound (XII), 3 mM of […] (hereinafter, referred to as “component A”) (Oriental Yeast Company), 1 mg/ml of a ferredoxin derived from spinach (hereinafter referred to as “component B”) (Sigma Company), 0.15 U/ml of ferredoxin reductase (hereinafter, referred to as “component C”) (Sigma Company) and 20 μl of the supernatant fraction recovered in Example 4(2). The reaction solution was maintained at 30° C. for 10 minutes. Further, there was prepared and maintained similarly 100 μl of a reaction solution of a 50 mM potassium phosphate buffer (pH 7.0) having no addition of at least one component utilized in the composition of the above reaction solution, selected from component A, component B, component C and the supernatant fraction prepared in Example 4(2). Ten microliters (10 μl) of 2N HCl and 500 μl of ethyl acetate were added and mixed into each of the reaction solutions after the maintenance. The resulting reaction solutions were centrifuged at 8,000×g to recover 490 μl of the ethyl acetate layer. After drying the ethyl acetate layers under reduced pressure, the residue was dissolved in 100 μl of 50 mM of potassium phosphate buffer (pH7.0). Forty microliters (40 μl) of the fraction solutions (hereinafter, the fraction solution derived from the reaction solution containing component A, component B, component C and 20 μl of supernatant fraction recovered in Example 4(2) is referred to as “(XII) metabolism solution (A1);” further, the fraction solution derived from the reaction solution containing no component A, no component B, no component C and no supernatant fraction recovered in Example 4(2) is referred to as “(XII) control solution (A1)”) were analyzed on a HPLC. Compared to the concentration of compound (XII) detected from (XII) control solution (A1), the concentration of compound (XII) detected from (XII) metabolism solution (A1) was lower. Further a peak, which was not detected from the (XII) control solution (A1), was detected from the (XII) metabolism solution (A1). Mass spectrometry was conducted for the compound contained in such a peak. […]
Other than utilizing 20 μl of the supernatant fraction recovered in Example 32(2) instead of 20 μl of the supernatant fraction recovered in Example 4(2), the reaction solutions were prepared and maintained in accordance with the method described in Example 41(2). […] Compared to the concentration of compound (XII) detected from (XII) control solution (A11), the concentration of compound (XII) detected from (XII) metabolism solution (A11) was lower. Further a peak, which was not detected from the (XII) control solution (A11), was detected from the (XII) metabolism solution (A11). […]

Barnyardgrass [3] = test: Herbicidal activity test, foliage treatment; assay type: in vivo, Echinochloa crus-galli; set-up: key: 0: situations in which the condition of sprouting or vegetation at the time of examination of the plant utilized for the test was compared with and showed totally or substantially no difference with that of the untreated application; 10: situations in which the plant completely withered or the sprouting or vegetation was completely suppressed; details: sprayed onto the foliage of plants cultivated 10 days, investigated after 16 days in a greenhouse
Experimental: (§1) Soil was packed into a round plastic pot having a diameter of 10 cm and depth of 10 cm. Barnyardgrass, Blackgrass, Ivyleaf morningglory were seeded and cultivated in a greenhouse for 10 days. Five (5) parts of the test compound, 6 parts of sorpol3005X (Toho Chemical Company) and 89 parts of xylene were well mixed to produce an emulsion. A certain amount thereof was diluted with water containing 0.1% (v/v) of a sticking agent at a proportion of 1000 L for 1 hectare and was spread uniformly with a spray-gun onto the all sides of the foliage from above the plant cultivated in the above pot. After cultivating the plants for 16 days in a greenhouse, the herbicidal activity of the test compound was investigated.
(§2) In the above Tables 3 and 4, the strength of the herbicidal activity is shown stepwise as 0, 1, 2, 3, 4, 5, 6, 7, 8, 9, and 10.

Blackgrass [4] = test: Herbicidal activity test, foliage treatment; assay type: in vivo, Alopercurus myosuroides; set-up: key: 0: situations in which the condition of sprouting or vegetation at the time of examination of the plant utilized for the test was compared with and showed totally or substantially no difference with that of the untreated application; 10: situations in which the plant completely withered or the sprouting or vegetation was completely suppressed; details: sprayed onto the foliage of plants cultivated 10 days, investigated after 16 days in a greenhouse
Experimental: as §1, §2

Ivyleaf morningglory [5] = test: Herbicidal activity test, foliage treatment; assay type: in vivo, Ipomoea hederacea; set-up: key: 0: situations in which the condition of sprouting or vegetation at the time of examination of the plant utilized for the test was compared with and showed totally or substantially no difference with that of the untreated application; 10: situations in which the plant completely withered or the sprouting or vegetation was completely suppressed; details: sprayed onto the foliage of plants cultivated 10 days, investigated after 16 days in a greenhouse
Experimental: as §1, §2

Barnyardgrass [6] = test: Herbicidal activity test, soil surface treatment; assay type: in vivo, Echinochloa crus-galli; set-up: key: 0: situations in which the condition of sprouting or vegetation at the time of examination of the plant utilized for the test was compared with and showed totally or substantially no difference with that of the untreated application; 10: situations in which the plant completely withered or the sprouting or vegetation was completely suppressed; details: 500 g/ha, sprayed onto the surface of the soil after seeding, investigated after 19 days in a greenhouse
Experimental: as §1, with “seeded.” for “seeded and cultivated in a greenhouse for 10 days.”, “surface” for “all sides”, “soil.” for “foliage from above the plant cultivated in the above pot.”, “19” for “16”, “activity” for “activity of the test compound”
as §2

Blackgrass [7] = test: Herbicidal activity test, soil surface treatment; assay type: in vivo, Alopercurus myosuroides; set-up: key: 0: situations in which the condition of sprouting or vegetation at the time of examination of the plant utilized for the test was compared with and showed totally or substantially no difference with that of the untreated application; 10: situations in which the plant completely withered or the sprouting or vegetation was completely suppressed; details: 500 g/ha, sprayed onto the surface of the soil after seeding, investigated after 19 days in a greenhouse
Experimental: as §1, with “seeded.” for “seeded and cultivated in a greenhouse for 10 days.”, “surface” for “all sides”, “soil.” for “foliage from above the plant cultivated in the above pot.”, “19” for “16”, “activity” for “activity of the test compound”
as §2

Ivyleaf morningglory [8] = test: Herbicidal activity test, soil surface treatment; assay type: in vivo, Ipomoea hederacea; set-up: key: 0: situations in which the condition of sprouting or vegetation at the time of examination of the plant utilized for the test was compared with and showed totally or substantially no difference with that of the untreated application; 10: situations in which the plant completely withered or the sprouting or vegetation was completely suppressed; details: 500 g/ha, sprayed onto the surface of the soil after seeding, investigated after 19 days in a greenhouse
Experimental: as §1, with “seeded.” for “seeded and cultivated in a greenhouse for 10 days.”, “surface” for “all sides”, “soil.” for “foliage from above the plant cultivated in the above pot.”, “19” for “16”, “activity” for “activity of the test compound”
as §2

Structure (SMILES): Cn1c(C(F)(F)F)cc(=O)n(-c2c(F)cc(Cl)c3oc(C(=O)O)cc23)c1=O [compound (XVII)]
- concentration of the compound detected from metabolism solution (A1) compared to control solution (A1) [1]: lower
- concentration of the compound detected from metabolism solution (A11) compared to control solution (A11) [2]: lower

Structure (SMILES): COC(=O)CO/C(C)=C(/Oc1cc(-n2c(=O)cc(C(F)(F)F)n(C)c2=O)c(F)cc1Cl)C(=O)O [compound (XVI)]
- concentration of the compound detected from metabolism solution (A1) compared to control solution (A1) [1]: lower
- concentration of the compound detected from metabolism solution (A11) compared to control solution (A11) [2]: lower

Structure (SMILES): C[C@@H](Oc1cc(-n2c(=O)cc(C(F)(F)F)[nH]c2=O)c(F)cc1Cl)C(=O)O [compound (III)]
- Herbicidal Activity Barnyardgrass (Barnyardgrass [3]; 125 g/ha): 0
- Herbicidal Activity Barnyardgrass (Barnyardgrass [3]; 500 g/ha): 0
- Herbicidal Activity Blackgrass (Blackgrass [4]; 125 g/ha): 0
- Herbicidal Activity Blackgrass (Blackgrass [4]; 500 g/ha): 0
- Herbicidal Activity Ivyleaf Morningglory (Ivyleaf morningglory [5]; 125 g/ha): 0
- Herbicidal Activity Ivyleaf Morningglory (Ivyleaf morningglory [5]; 500 g/ha): 0
- Herbicidal Activity Barnyardgrass (Barnyardgrass [6]): 0
- Herbicidal Activity Blackgrass (Blackgrass [7]): 0
- Herbicidal Activity Ivyleaf Morningglory (Ivyleaf morningglory [8]): 0
